# From patent US20200129450A1, “COMPOSITION COMPRISING OSMUNDACETONE OR PHARMACEUTICALLY ACCEPTABLE SALT THEREOF FOR PREVENTING OR TREATING BONE DISEASE” (KORPHARM CO., LTD., priority 2016, published 2020)
# Entries after “also recorded” stand apart in the source; their conditions may differ.
# Columns and labels:
# [1] = test system: osteoclasts differentiated from mouse bone marrow cells; test: TRAP assay, osteoclast proliferation and differentiation inhibitory activity; type: cell-based; details: for IC50: tested at 1, 4, 7 and 10 μM, TRAP-positive multinucleated cells
# Description: Bone marrow cells were collected from the femur and shin bones of 5-8 week old male C57BL/6 mice. Muscles were removed from the bones, and stored in cold phosphate buffered saline (PBS; # CAP08-050, GenDEPOT, Katy, Tex., USA).
# Both ends of each bone were cut, and the bone marrow was flushed with a flushing medium (serum-free α-MEM, 2 mM ethylenediaminetetraacetic acid) kept cool, using a 25 G needle.
# Bone marrow cells were collected by centrifugation at 3,000 rpm for 3 min using Labogene 1248R (Labogene, Lynge, Denmark), and then resuspended in a wash medium. Thereafter, 8 mL of the collected bone marrow cells were overlaid on 6 mL of a lymphocyte isolation medium (LSM; #50494, MP Biomedicals, Santa Ana, Calif., USA), followed by centrifugation at 1,600 rpm for 20 minutes, thereby isolating mononuclear cells.
# The mononuclear cell bands were collected from the media interface, and incubated using complete α-MEM (containing 10% fatal bovine serum (FBS; Capricorn Scientific, Ebsdorfergrund, Germany) and 1% (v/v) antibiotic (including 100 U/mL penicillin G and […] streptomycin)) in the conditions of 37° C. and 5% CO2 while the medium was exchanged every three days.
# In order to promote the differentiation of osteoclasts, 1×10^5 cells were incubated in 0.5 mL of the medium per well in a 48-well plate, in the presence of osteoclast differentiation factors, M-CSF (60 ng/mL) and RANKL (150 ng/mL), purchased from PeproTec (Seoul, Korea). As known, macrophages/monocytes derived from one bone marrow differentiated into mature multinucleated osteoclasts after 6 days (Gurt et al., 2015).
# The tibia and femur of 6-8 week old male C57BL/6 mice were aseptically resected, and bone marrow cells were aseptically collected using a syringe (21 G, Korea Green Cross). The bone marrow cells were floated in 500 μL of α-MEM medium (Gibco BRL Co.) containing sodium bicarbonate (2.0 g/L), streptomycin (100 mg/L), and penicillin ([…]), dispensed in a 48-well plate, and assayed in triplicate. Mononuclear cells as precursor cells of osteoclasts were treated with RANKL and M-CSF as differentiation promoting factors, and thus differentiated into osteoclasts within 5-7 days.
# 2-1) Sample preparation: The hot-water extract, EA extract, or fraction of Osmunda japonica were prepared by the same methods as in section 1 of <Example 1>. The EA-2 extract was dissolved in a minimum amount of DMSO, and then diluted with water to 70% of the original volume of the hot-water extract assuming that the yield of EA-2 extraction was approximately 70%. 2-2) Sample administration: The sample was continuously administered to a medium at 1:20 (v/v; 25 μL of the sample per 500 μL of the medium) from day 1 of incubation of bone marrow cells, while the medium was exchanged every 2-3 days. 2-3) Measurement of osteoclast differentiation Osteoclasts were defined by TRAP-positive multinucleated cells stained with TRAP. As for TRAP stain solution, 5 mg of naphthol AS-MS phosphate (Sigma N-4875) as a base and 25 mg of Fast Red Violet LB salt as a color developing reagent were dissolved in about 0.5 mL of N,N-dimethylformamide, and then mixed with 0.1N NaHCO3 buffer solution (50 mL) containing 50 mM tartaric acid. The reaction reagent was stored in a refrigerator before use.
# After bone marrow cells were incubated in a medium containing differentiation promoting factors for 7 days, the medium was removed, and the cells were washed with PBS, and then immobilized with PBS containing 10% formalin for 2-5 minutes. Thereafter, the cells were immobilized with a 1:1 mixture solution of ethanol and acetone, followed by drying. The immobilized cells were treated with the TRAP stain solution for 15 minutes, and washed with PBS, and then the degree of cell staining was observed by a microscope.
# In the microscope field of view, cells having two or more nuclei in the TRAP-positive cells were determined to be osteoclasts, and the number of cells was measured. […]
# [2] = test system: ALP activity of MC3T3-E1 osteoblasts in co-incubation; test: Co-culture of osteoclasts and osteoblasts: ALP activity; type: cell-based, mouse; details: 10 μM, vs non-treated
# Description: 1×10^5 C57BL/6 mouse bone marrow mononuclear cells per well of a 48-well plate were prepared in the same manner as described above, and co-incubated together with 1.5×10^4 MC3T3-E1 murine osteoblasts, using 500 μL of α-MEM containing 10% FBS and 1% antibiotic (100 U/mL penicillin G and […] streptomycin) in the conditions of 37° C. and 5% CO2 while the medium was exchanged every three days.
# Positive control cells were co-incubated together with osteoclast differentiation factors M-CSF (60 ng/mL) and RANKL (150 ng/mL), and osteoblast differentiation factors ascorbic acid (50 μg/mL) and 10 mM R-glycerophosphate.
# Negative control cells were incubated by adding only M-CSF as a differentiation factor. In order to examine effects of osmundacetone on the differentiation of osteoclasts and osteoblasts, osmundacetone were administered at a final concentration of 10 μM into the positive control cells on day 1 after the cells were dispensed on the plate.
# ALP activity was assessed using Quantichrom ALP Assay Kit (Bioassay Systems, Hayward, Calif., USA) according to manufacturer's instructions.
# […] The % activation of ALP activity was shown by comparing ALP activity of cells treated with an experimental compound and ALP activity of the non-treated control cells.
# In order to investigate whether or not osmundacetone has ability to inhibit osteoclast differentiation and activate osteoblast differentiation simultaneously, bone marrow mononuclear cells collected from C57BL/6 mice and MC3T3-E1 cells as osteoblast precursor cells were co-incubated in a 48-well plate at cell concentrations of 1×10^5 bone marrow cells and […] MC3T3-E1 cells per well. The bone marrow monocyte/macrophage lineage cells in the co-incubated bone marrow cells and osteoblast precursor cells differentiated into mature multinuclear osteoclasts in the presence of M-CSF and RANKL within 6-7 days.
smiles,measurement,setting,value
"CC(=O)/C=C/c1ccc(O)c(O)c1 [Osmundacetone, (3E)-4-(3,4-dihydroxyphenyl)-3-buten-2-one]","formation of giant osteoclasts, number compared with the positive control group",[1]; 1 μM,smaller compared with the positive control group
same,formation of giant osteoclasts / differentiation of bone marrow mononuclear cells into osteoclasts,[1]; 10 μM osmundacetone (printed 10M),significantly inhibited; also recorded: almost completely inhibited
same,IC50,"[1]; Mus musculus, Osteoclast",≤ 8 µM
same,inhibition at 7 µM,"[1]; Mus musculus, Osteoclast, 7 μM, read-out: inhibition of differentiation of bone marrow mononuclear cells into osteoclasts",3 to 40%
same,inhibition at 10 µM,"[1]; Mus musculus, Osteoclast, 10 μM, read-out: inhibition of differentiation of bone marrow mononuclear cells into osteoclasts",≥ 95%
same,proliferation of osteoclast precursor cells,[1]; osmundacetone 10M as printed,significantly inhibited
same,IC50,[1],8 µM
same,% activation of ALP activity in co-incubation,[2]; day 7 of co-incubation,104%
same,% activation of ALP activity in co-incubation,[2]; day 14 of co-incubation,111%
same,% activation of ALP activity in co-incubation,[2]; day 21 of co-incubation,95%
